Biological target: T1, RORc ligand binding domain (Homo sapiens, UniProt P51449)
T1 sequence (P51449 269-508 limits assumed): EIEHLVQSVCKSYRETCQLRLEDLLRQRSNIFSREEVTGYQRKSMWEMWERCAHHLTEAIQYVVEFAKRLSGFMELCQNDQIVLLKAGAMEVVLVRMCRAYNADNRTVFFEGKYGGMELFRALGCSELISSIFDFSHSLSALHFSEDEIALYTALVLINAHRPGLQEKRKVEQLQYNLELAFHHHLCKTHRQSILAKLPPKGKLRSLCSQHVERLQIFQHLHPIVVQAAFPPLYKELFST
Experiment: In Vitro RORc Ligand Binding Assay
Settings: RORc IC50, radioligand 25-[3H]hydroxycholesterol 6 nM; 0.6 ug/mL RORc receptor; 3 h at 25° C.

Structure (SMILES) | IC50
CC(=O)NCc1cncc([C@@]23CC[C@@H](c4cc(-c5c(F)cccc5F)nnc42)C3(C)C)n1 [Example 133, N-((6-((5R,8S)-3-(2,6-difluorophenyl)-9,9-dimethyl-5,6,7,8-tetrahydro-5,8-methanocinnolin-8-yl)pyrazin-2-yl)methyl)acetamide] | 59.2 nM
CC1(C)[C@H]2CC[C@]1(c1cncc(CNS(C)(=O)=O)n1)c1nnc(-c3c(F)cccc3F)cc12 [Example 134, N-((6-((5R,8S)-3-(2,6-difluorophenyl)-9,9-dimethyl-5,6,7,8-tetrahydro-5,8-methanocinnolin-8-yl)pyrazin-2-yl)methyl)methanesulfonamide] | 18.8 nM
CC1(C)[C@H]2CC[C@]1(c1cncc(-c3nc(CO)co3)n1)c1nnc(-c3c(F)cccc3F)cc12 [Example 135, (2-(6-((5R,8S)-3-(2,6-difluorophenyl)-9,9-dimethyl-5,6,7,8-tetrahydro-5,8-methanocinnolin-8-yl)pyrazin-2-yl)oxazol-4-yl)methanol] | 23.3 nM
CC(C)(O)CNC(=O)c1nccc([C@@]23CC[C@@H](c4cc(-c5c(F)cccc5F)nnc42)C3(C)C)n1 [Example 136] | 37.1 nM
CC1(C)[C@H]2CC[C@]1(c1cccc(S(=O)(=O)N3CCOCC3)n1)c1nnc(-c3c(F)cccc3F)cc12 [Example 137, 4-((6-((5R,8S)-3-(2,6-difluorophenyl)-9,9-dimethyl-5,6,7,8-tetrahydro-5,8-methanocinnolin-8-yl)pyridin-2-yl)sulfonyl)morpholine] | 14.6 nM
Cc1nnc(-c2nccc([C@@]34CC[C@@H](c5cc(-c6c(F)cccc6F)nnc53)C4(C)C)n2)o1 [Example 138] | 41.9 nM
CC1(C)[C@H]2CC[C@]1(c1cncc(C(=O)NCc3nnc[nH]3)n1)c1nnc(-c3c(F)cccc3F)cc12 [Example 139, N-((4H-1,2,4-triazol-3-yl)methyl)-6-((5R,8S)-3-(2,6-difluorophenyl)-9,9-dimethyl-5,6,7,8-tetrahydro-5,8-methanocinnolin-8-yl)pyrazine-2-carboxamide] | 65.5 nM
CC1(C)[C@H]2CC[C@]1(c1cncc(C(=O)NC3(CO)CC3)n1)c1nnc(-c3c(F)cccc3F)cc12 [Example 140, 6-((5R,8S)-3-(2,6-difluorophenyl)-9,9-dimethyl-5,6,7,8-tetrahydro-5,8-methanocinnolin-8-yl)-N-(1-(hydroxymethyl)cyclopropyl)pyrazine-2-carboxamide] | 44.4 nM
CC1(C)[C@H]2CC[C@]1(c1cncc(C(=O)NCc3n[nH]c(=O)[nH]3)n1)c1nnc(-c3c(F)cccc3F)cc12 [Example 141, 6-((5R,8S)-3-(2,6-difluorophenyl)-9,9-dimethyl-5,6,7,8-tetrahydro-5,8-methanocinnolin-8-yl)-N-((5-oxo-4,5-dihydro-1H-1,2,4-triazol-3-yl)methyl)pyrazine-2-carboxamide] | 113 nM
CC1(C)[C@H]2CC[C@]1(c1cncc(-c3ocnc3CO)n1)c1nnc(-c3c(F)cccc3F)cc12 [Example 142, (5-(6-((5R,8S)-3-(2,6-difluorophenyl)-9,9-dimethyl-5,6,7,8-tetrahydro-5,8-methanocinnolin-8-yl)pyrazin-2-yl)oxazol-4-yl)methanol] | 17.2 nM
CNS(=O)(=O)c1cccc([C@@]23CC[C@@H](c4cc(-c5c(F)cccc5F)nnc42)C3(C)C)n1 [Example 143, 6-((5R,8S)-3-(2,6-difluorophenyl)-9,9-dimethyl-5,6,7,8-tetrahydro-5,8-methanocinnolin-8-yl)-N-methylpyridine-2-sulfonamide] | 5.9 nM
CC1(C)[C@H]2CC[C@]1(c1cccc(-c3nnc(CO)o3)n1)c1nnc(-c3c(F)cccc3F)cc12 [Example 144, (5-(6-((5R,8S)-3-(2,6-difluorophenyl)-9,9-dimethyl-5,6,7,8-tetrahydro-5,8-methanocinnolin-8-yl)pyridin-2-yl)-1,3,4-oxadiazol-2-yl)methanol] | 11.6 nM
CC1(C)[C@H]2CC[C@]1(c1cncc(-c3ncnn3CCO)n1)c1nnc(-c3c(F)cccc3F)cc12 [Example 145, 2-(5-(6-((5R,8S)-3-(2,6-difluorophenyl)-9,9-dimethyl-5,6,7,8-tetrahydro-5,8-methanocinnolin-8-yl)pyrazin-2-yl)-1H-1,2,4-triazol-1-yl)ethanol] | 43.5 nM
CC1(C)[C@H]2CC[C@]1(c1cncc(-c3nnn[nH]3)n1)c1nnc(-c3c(F)cccc3F)cc12 [Example 146] | 31.9 nM
CC1(C)[C@H]2CC[C@]1(c1cncc(C(=O)NC3(CO)COC3)n1)c1nnc(-c3c(F)cccc3F)cc12 [Example 147, 6-((5R,8S)-3-(2,6-difluorophenyl)-9,9-dimethyl-5,6,7,8-tetrahydro-5,8-methanocinnolin-8-yl)-N-(3-(hydroxymethyl)oxetan-3-yl)pyrazine-2-carboxamide] | 50.6 nM
CC1(C)[C@H]2CC[C@]1(c1cncc(-c3n[nH]c(=O)o3)n1)c1nnc(-c3c(F)cccc3F)cc12 [Example 148, 5-(6-((5R,8S)-3-(2,6-difluorophenyl)-9,9-dimethyl-5,6,7,8-tetrahydro-5,8-methanocinnolin-8-yl)pyrazin-2-yl)-1,3,4-oxadiazol-2(3H)-one] | 21 nM
Cc1nnc(-c2cccc([C@@]34CC[C@@H](c5cc(-c6c(F)cccc6F)nnc53)C4(C)C)n2)[nH]1 [Example 149] | 24 nM
CC1(C)[C@H]2CC[C@]1(c1cccc(-c3nnc(CO)[nH]3)n1)c1nnc(-c3c(F)cccc3F)cc12 [Example 150, (5-(6-((5R,8S)-3-(2,6-difluorophenyl)-9,9-dimethyl-5,6,7,8-tetrahydro-5,8-methanocinnolin-8-yl)pyridin-2-yl)-4H-1,2,4-triazol-3-yl)methanol] | 22.3 nM

Structure (SMILES) | IC50
CC1(C)[C@H]2CC[C@]1(c1ccnc(-n3cnnc3)n1)c1nnc(-c3c(F)cccc3F)cc12 [Example 151] | 13.6 nM
CC1(C)[C@H]2CC[C@]1(c1ccnc(N3C[C@H](O)[C@@H](O)C3)n1)c1nnc(-c3c(F)cccc3F)cc12 [Example 152] | 174 nM
CC1(C)[C@H]2CC[C@]1(c1ccnc(NC[C@H](O)CO)n1)c1nnc(-c3c(F)cccc3F)cc12 [Example 153] | 15.7 nM
CC1(C)[C@H]2CC[C@]1(c1ccnc(NC[C@@H](O)CO)n1)c1nnc(-c3c(F)cccc3F)cc12 [Example 154] | 42.1 nM
CC1(C)[C@H]2CC[C@]1(c1ccnc(NCc3n[nH]c(=O)[nH]3)n1)c1nnc(-c3c(F)cccc3F)cc12 [Example 155] | 65.8 nM
CC(C)S(=O)(=O)Nc1cccc([C@@]23CC[C@@H](c4cc(-c5c(F)cccc5F)nnc42)C3(C)C)n1 [Example 156, N-(6-((5R,8S)-3-(2,6-difluorophenyl)-9,9-dimethyl-5,6,7,8-tetrahydro-5,8-methanocinnolin-8-yl)pyridin-2-yl)propane-2-sulfonamide] | 30.6 nM
CC1(C)[C@H]2CC[C@]1(c1cccc(N3CCNC3=O)n1)c1nnc(-c3c(F)cccc3F)cc12 [Example 157, 1-(6-((5R,8S)-3-(2,6-difluorophenyl)-9,9-dimethyl-5,6,7,8-tetrahydro-5,8-methanocinnolin-8-yl)pyridin-2-yl)imidazolidin-2-one] | 5.1 nM
CC1(C)[C@H]2CC[C@]1(c1cccc(N3CCN(CCO)C3=O)n1)c1nnc(-c3c(F)cccc3F)cc12 [Example 158, 1-(6-((5R,8S)-3-(2,6-difluorophenyl)-9,9-dimethyl-5,6,7,8-tetrahydro-5,8-methanocinnolin-8-yl)pyridin-2-yl)-3-(2-hydroxyethyl)imidazolidin-2-one] | 26.1 nM
CC1(C)[C@H]2CC[C@]1(c1cnc(C#N)c(C#N)n1)c1nnc(-c3c(F)cccc3F)cc12 [Example 159, 5-((5R,8S)-3-(2,6-difluorophenyl)-9,9-dimethyl-5,6,7,8-tetrahydro-5,8-methanocinnolin-8-yl)pyrazine-2,3-dicarbonitrile] | 548 nM
COC(=O)c1nccc([C@@]23CC[C@@H](c4cc(-c5c(F)cccc5Cl)nnc42)C3(C)C)n1 [Example 160] | 13.1 nM
CC1(C)[C@H]2CC[C@]1(c1ccnc(C(=O)NCCO)n1)c1nnc(-c3c(F)cccc3Cl)cc12 [Example 161] | 44 nM
CC1(C)[C@H]2CC[C@]1(c1cccc(S(=O)(=O)NCCO)n1)c1nnc(-c3c(F)cccc3F)cc12 [Example 162, 6-((5R,8S)-3-(2,6-difluorophenyl)-9,9-dimethyl-5,6,7,8-tetrahydro-5,8-methanocinnolin-8-yl)-N-(2-hydroxyethyl)pyridine-2-sulfonamide] | 23 nM
CC1(C)[C@H]2CC[C@]1(c1ccnc(NCc3nnc[nH]3)n1)c1nnc(-c3c(F)cccc3F)cc12 [Example 163] | 19.2 nM
CC1(C)[C@H]2CC[C@]1(c1cccc(NS(=O)(=O)C3COC3)n1)c1nnc(-c3c(F)cccc3F)cc12 [Example 164, N-(6-((5R,8S)-3-(2,6-difluorophenyl)-9,9-dimethyl-5,6,7,8-tetrahydro-5,8-methanocinnolin-8-yl)pyridin-2-yl)oxetane-3-sulfonamide] | 32.4 nM
CC1(C)[C@H]2CC[C@]1(c1cc(C#N)ncc1Br)c1nnc(-c3c(F)cccc3F)cc12 [Example 165, 5-bromo-4-((5R,8S)-3-(2,6-difluorophenyl)-9,9-dimethyl-5,6,7,8-tetrahydro-5,8-methanocinnolin-8-yl)picolinonitrile] | 25.1 nM
CC1(C)[C@H]2CC[C@]1(c1nc(C#N)ccc1Br)c1nnc(-c3c(F)cccc3F)cc12 [Example 166, 5-bromo-6-((5R,8S)-3-(2,6-difluorophenyl)-9,9-dimethyl-5,6,7,8-tetrahydro-5,8-methanocinnolin-8-yl)picolinonitrile] | 3.9 nM
Cc1nc(C#N)c(C#N)nc1[C@@]12CC[C@@H](c3cc(-c4c(F)cccc4F)nnc31)C2(C)C [Example 167, 5-((5R,8S)-3-(2,6-difluorophenyl)-9,9-dimethyl-5,6,7,8-tetrahydro-5,8-methanocinnolin-8-yl)-6-methylpyrazine-2,3-dicarbonitrile] | 548 nM
